One assay has as its target T1, recombinant human SK (Homo sapiens, UniProt Q9NYA1).
T1 construct: GST (glutathione-S-transferase) (N); made in house; host or cells: bacteria (pGEX bacterial expression vector)
The experiment in a line: Recombinant human SK activity assay ([3H]sphingosine to [3H]S1P). The note with it: Human SK incubated with 6 μg/mL of compound; percentage of SK activity inhibited. The assay is classed as biochemical.

The test system of assay [1] is endogenous SK activity in MDA-MB-231 cells. The experiment in a line: Cellular S1P production (endogenous SK activity) in MDA-MB-231 cells. Type of assay: cell-based. The note with it: for inhibition at 20 µg/mL / IC50: Homo sapiens; for inhibition at 20 µg/mL: MDA-MB-231, MDA-MB-231 cells incubated with 20 μg/mL of compound; for inhibition at 20 µg/mL / Cellular S1P (% inhibition): percentage of S1P production inhibited; for IC50: MDA-MB-231 cells, varying concentrations, concentration inhibiting S1P production by 50%; for Cellular S1P (% inhibition): MDA-MB-231 cells incubated with 20 μg/mL of compound. Put shortly:
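MDA-MB-231 cells treated with 20 μg/mL compound and assayed for endogenous SK activity, reported as % inhibition of S1P production. For IC50, cells received varying compound concentrations and S1P produced was measured; IC50 is the concentration giving 50% inhibition.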

The inhibition is the percentage by which the read-out fell short of the control. One may read the IC50 as the concentration at which inhibition is half-maximal. A higher IC50 goes with weaker potency in that assay.

T1 sequence (Q9NYA1 whole entry): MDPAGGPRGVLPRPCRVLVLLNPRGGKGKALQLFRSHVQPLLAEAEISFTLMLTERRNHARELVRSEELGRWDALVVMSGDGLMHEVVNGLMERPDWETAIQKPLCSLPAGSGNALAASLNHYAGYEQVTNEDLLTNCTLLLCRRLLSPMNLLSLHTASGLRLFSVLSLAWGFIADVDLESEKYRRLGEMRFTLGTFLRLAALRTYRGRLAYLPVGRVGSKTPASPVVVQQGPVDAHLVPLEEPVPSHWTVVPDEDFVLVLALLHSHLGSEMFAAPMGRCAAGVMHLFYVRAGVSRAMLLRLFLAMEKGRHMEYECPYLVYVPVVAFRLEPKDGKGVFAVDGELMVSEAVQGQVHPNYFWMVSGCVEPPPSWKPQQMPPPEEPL

For the compound `O=C(NCc1ccccc1)C12CC3CC(C1)CC(c1ccc(Cl)cc1)(C3)C2` [A12, 3-(4-Chloro-phenyl)-adamantane-1-carboxylic acid benzylamide], the inhibition at 6 µg/mL on recombinant human SK came to 36%. Besides, in assay [1], the inhibition at 20 µg/mL was found to be 3%.

Consider `CC(C)(C)c1ccc(CNC(=O)C23CC4CC(C2)CC(c2ccc(Cl)cc2)(C4)C3)cc1` [A13, 3-(4-Chloro-phenyl)-adamantane-1-carboxylic acid 4-tert-butyl-benzylamide], for which the inhibition at 6 µg/mL on recombinant human SK was found to be 78%. In assay [1], the inhibition at 20 µg/mL was determined as 0%.

For the compound `CC(NC(=O)C12CC3CC(C1)CC(c1ccc(Cl)cc1)(C3)C2)c1ccc(Br)cc1` (stereo not shown) [A29, 3-(4-Chloro-phenyl)-adamantane-1-carboxylic acid [1-(4-bromo-phenyl)-ethyl]-amide], the inhibition at 6 µg/mL on recombinant human SK came out at 55%. In assay [1], this compound yielded an inhibition at 20 µg/mL of 0%.

Take `O=C(NCc1ccc(O)c(O)c1)C12CC3CC(CC(C3)C1)C2` [A35, Adamantane-1-carboxylic acid 3,4-dihydroxy-benzylamide]: the inhibition at 6 µg/mL on recombinant human SK turned out to be 87%. Also, in assay [1], 20 µg/mL produced 0% inhibition.

`O=C(NCCc1ccccc1)C12CC3CC(C1)CC(c1ccc(Cl)cc1)(C3)C2` [A37, 3-(4-Chloro-phenyl)-adamantane-1-carboxylic acid phenethyl-amide]: the inhibition at 6 µg/mL at recombinant human SK was 24%. Also, the inhibition at 20 µg/mL in assay [1] is 36%.

Turning to `O=C(NCCc1ccc(F)cc1)C12CC3CC(C1)CC(c1ccc(Cl)cc1)(C3)C2` [A38, 3-(4-Chloro-phenyl)-adamantane-1-carboxylic acid [2-(4-fluoro-phenyl)-ethyl]-amide], the inhibition at 6 µg/mL on recombinant human SK is 40%. In addition, 20 µg/mL produced 34% inhibition in assay [1].

Turning to `O=C(NCCc1ccc(Br)cc1)C12CC3CC(C1)CC(c1ccc(Cl)cc1)(C3)C2` [A39, 3-(4-Chloro-phenyl)-adamantane-1-carboxylic acid [2-(4-bromo-phenyl)-ethyl]-amide], the inhibition at 6 µg/mL on recombinant human SK was determined as 19%. Further, in assay [1], the inhibition at 20 µg/mL was determined as 26%.

As for `O=C(NCCc1ccc(O)cc1)C12CC3CC(C1)CC(c1ccc(Cl)cc1)(C3)C2` [A40, 3-(4-Chloro-phenyl)-adamantane-1-carboxylic acid [2-(4-hydroxy-phenyl)-ethyl]-amide], the inhibition at 6 µg/mL at recombinant human SK was determined as 100%. In assay [1], this compound gave an inhibition at 20 µg/mL of 52%.

As for `O=C(NCc1ccc(Oc2ccccc2)cc1)C12CC3CC(C1)CC(c1ccc(Cl)cc1)(C3)C2` [A41, 3-(4-Chloro-phenyl)-adamantane-1-carboxylic acid 4-phenoxy-benzylamide], the “Recombinant SK (% inhibition)” value on recombinant human SK was 67%. In assay [1], this compound displayed an inhibition at 20 µg/mL of 23%.

For the compound `O=C(NCCc1ccc(O)c(O)c1)C12CC3CC(CC(C3)C1)C2` [A43, Adamantane-1-carboxylic acid [2-(3,4-dihydroxy-phenyl)-ethyl]-amide], the inhibition at 6 µg/mL at recombinant human SK amounted to 0%. This compound also had an inhibition at 20 µg/mL in assay [1] of 0%.

`O=C(NCCCc1ccccc1)C12CC3CC(C1)CC(c1ccc(Cl)cc1)(C3)C2` [A48, 3-(4-Chloro-phenyl)-adamantane-1-carboxylic acid (3-phenyl-propyl)-amide]: on recombinant human SK, the inhibition at 6 µg/mL was 36%. Moreover, 20 µg/mL produced 14% inhibition in assay [1].

For the compound `CN1CCC(NC(=O)C23CC4CC(CC(C4)C2)C3)CC1` [A50, Adamantane-1-carboxylic acid (1-methyl-piperidin-4-yl)-amide], the inhibition at 6 µg/mL at recombinant human SK came out at 0%. Moreover, in assay [1], at 20 µg/mL the inhibition was 44%.

With `CN1CCC(NC(=O)C23CC4CC(C2)CC(c2ccc(Cl)cc2)(C4)C3)CC1` [A51, 3-(4-Chloro-phenyl)-adamantane-1-carboxylic acid (1-methyl-piperidin-4-yl)-amide], the inhibition at 6 µg/mL at recombinant human SK is 84%. Moreover, in assay [1], the inhibition at 20 µg/mL was determined as 88% and it took 25 µM to reach half-maximal inhibition (IC50).

`CN1CCN(NC(=O)C23CC4CC(C2)CC(c2ccc(Cl)cc2)(C4)C3)CC1` [A52, 3-(4-Chloro-phenyl)-adamantane-1-carboxylic acid (4-methyl-piperazin-1-yl)-amide]: at recombinant human SK, the inhibition at 6 µg/mL amounted to 54%. For the same compound, the inhibition at 20 µg/mL in assay [1] came to 61%.

Take `CN1CCCC1CCNC(=O)C12CC3CC(CC(C3)C1)C2` (stereo not shown) [A56, Adamantane-1-carboxylic acid [2-(1-methyl-pyrrolidin-2-yl)-ethyl]-amide]: the inhibition at 6 µg/mL at recombinant human SK is 33%. This compound gave an inhibition at 20 µg/mL in assay [1] of 40%.

On to `CN1CCCC1CCNC(=O)C12CC3CC(C1)CC(c1ccc(Cl)cc1)(C3)C2` (stereo not shown) [A57, 3-(4-Chloro-phenyl)-adamantane-1-carboxylic acid [2-(1-methyl-pyrrolidin-2-yl)-ethyl]-amide], for which the inhibition at 6 µg/mL at recombinant human SK was found to be 30%. In assay [1], this compound registered an inhibition at 20 µg/mL of 83% and an IC50 of 60 µM.

As to `O=C(NCCN1CCOCC1)C12CC3CC(C1)CC(c1ccc(Cl)cc1)(C3)C2` [A58, 3-(4-Chloro-phenyl)-adamantane-1-carboxylic acid (2-morpholin-4-yl-ethyl)-amide], the inhibition at 6 µg/mL on recombinant human SK came to 67%. 20 µg/mL produced 55% inhibition in assay [1].

Regarding `O=C(NCc1ccncc1)C12CC3CC(CC(C3)C1)C2` [A60, Adamantane-1-carboxylic acid (pyridin-4-ylmethyl)-amide], the inhibition at 6 µg/mL at recombinant human SK stood at 0%. In addition, testing at 20 µg/mL in assay [1] gave an inhibition of 23%.

As for `O=C(NCc1ccncc1)C12CC3CC(C1)CC(c1ccc(F)cc1)(C3)C2` [A61, 3-(4-Fluoro-phenyl)-adamantane-1-carboxylic acid (pyridin-4-ylmethyl)-amide], the inhibition at 6 µg/mL on recombinant human SK turned out to be 58%. Moreover, the inhibition at 20 µg/mL in assay [1] amounted to 24%.

Take `O=C(NCc1ccncc1)C12CC3CC(C1)CC(c1ccc(Cl)cc1)(C3)C2` [A62, 3-(4-Chloro-phenyl)-adamantane-1-carboxylic acid (pyridin-4-ylmethyl)-amide]: the inhibition at 6 µg/mL at recombinant human SK turned out to be 13%. In assay [1], this compound showed an inhibition at 20 µg/mL of 92% and an IC50 of 26 µM.

In the case of `O=C(NCc1ccncc1)C12CC3CC(CC(C3)C1)C2` [A63, Adamantane-1-carboxylic acid (pyridin-4-ylmethyl)-amide], on recombinant human SK, the “Recombinant SK (% inhibition)” value is given as 0%. In assay [1], the “Cellular S1P (% inhibition)” value amounted to 39%.

Regarding `O=C(NCCc1ccncc1)C12CC3CC(C1)CC(c1ccc(Cl)cc1)(C3)C2` [A64, 3-(4-Chloro-phenyl)-adamantane-1-carboxylic acid (2-pyridin-4-yl-ethyl)-amide], on recombinant human SK, the inhibition at 6 µg/mL was 41%. In assay [1], this compound came in with an inhibition at 20 µg/mL of 80% and an IC50 of 63 µM.

As to `Cc1cc2cc(NC(=O)C34CC5CC(C3)CC(c3ccc(Cl)cc3)(C5)C4)ccc2[nH]1` [A66, 3-(4-Chloro-phenyl)-adamantane-1-carboxylic acid (2-methyl-1H-indol-5-yl)-amide], the inhibition at 6 µg/mL on recombinant human SK worked out at 92%. Also, in assay [1], the inhibition at 20 µg/mL turned out to be 8%.

Take `CCn1c2ccccc2c2cc(NC(=O)C34CC5CC(C3)CC(c3ccc(Cl)cc3)(C5)C4)ccc21` [A68, 3-(4-Chloro-phenyl)-adamantane-1-carboxylic acid (9-ethyl-9H-carbazol-3-yl)-amide]: the inhibition at 6 µg/mL on recombinant human SK stood at 17%. The compound also returned an inhibition at 20 µg/mL in assay [1] of 0%.

As to `O=C(Nc1nc(-c2ccc(Cl)cc2)cs1)C12CC3CC(CC(C3)C1)C2` [A69, Adamantane-1-carboxylic acid [4-(4-chloro-phenyl)-thiazol-2-yl]-amide], the inhibition at 6 µg/mL on recombinant human SK was 40%. This compound also yielded an inhibition at 20 µg/mL in assay [1] of 13%.

With `O=C(Nc1nc(-c2ccc(Cl)cc2)cs1)C12CC3CC(C1)CC(c1ccc(Cl)cc1)(C3)C2` [A70, 3-(4-Chloro-phenyl)-adamantane-1-carboxylic acid [4-(4-chloro-phenyl)-thiazol-2-yl]-amide], at recombinant human SK, the inhibition at 6 µg/mL came to 33%. Moreover, testing at 20 µg/mL in assay [1] gave an inhibition of 4%.

With `O=C(Nc1nc2ccccc2s1)C12CC3CC(C1)CC(c1ccc(Cl)cc1)(C3)C2` [A71, 3-(4-Chloro-phenyl)-adamantane-1-carboxylic acid benzothiazol-2-ylamide], the inhibition at 6 µg/mL at recombinant human SK worked out at 27%. The compound also had an inhibition at 20 µg/mL in assay [1] of 0%.

Consider `O=C(Nc1nc2cc(Cl)ccc2o1)C12CC3CC(C1)CC(c1ccc(Cl)cc1)(C3)C2` [A72, 3-(4-Chloro-phenyl)-adamantane-1-carboxylic acid (5-chloro-benzooxazol-2-yl)-amide], for which, at recombinant human SK, the inhibition at 6 µg/mL amounted to 14%. In addition, 20 µg/mL produced 1% inhibition in assay [1].

`CN1CCN(NCC23CC4CC(C2)CC(c2ccc(Cl)cc2)(C4)C3)CC1` [A83, [3-(4-Chloro-phenyl)-adamantan-1-ylmethyl]-(4-methyl-piperazin-1-yl)-amine]: the inhibition at 6 µg/mL at recombinant human SK was 60%. In assay [1], this compound gave an inhibition at 20 µg/mL of 88% and an IC50 of 16 µM.

For `Clc1ccc(C23CC4CC(CC(CNCCN5CCOCC5)(C4)C2)C3)cc1` [A87, [3-(4-Chloro-phenyl)-adamantan-1-ylmethyl]-(2-morpholin-4-yl-ethyl)-amine], at recombinant human SK, the inhibition at 6 µg/mL was determined as 75%. Further, in assay [1], the inhibition at 20 µg/mL worked out at 55% and the midpoint of inhibition, the IC50, lay at 64 µM.

Take `CCn1c2ccccc2c2cc(NCC34CC5CC(C3)CC(c3ccc(Cl)cc3)(C5)C4)ccc21` [A89, [3-(4-Chloro-phenyl)-admantan-1-ylmethyl]-(9-ethyl-9H-carbazol-3-yl)-amine]: on recombinant human SK, the “Recombinant SK (% inhibition)” value is given as 37%. Besides, the “Cellular S1P (% inhibition)” value in assay [1] is given as 1%.

In the case of `Clc1ccc(-c2cnc(NCC34CC5CC(C3)CC(c3ccc(Cl)cc3)(C5)C4)s2)cc1` [A90, [3-(4-Chloro-phenyl)-adamantan-1-ylmethyl]-[5-(4-chloro-phenyl)-thiazol-2-yl]-amine], the inhibition at 6 µg/mL on recombinant human SK amounted to 26%. Besides, 20 µg/mL produced 16% inhibition in assay [1].

These data come from US20120122870A1, “Treatment Of Ischemia-Reperfusion Injury” (MUSC FOUNDATION FOR RESEARCH DEVELOPMENT, priority 2009, published 2012).
